Results taken from US6251894A, “1-(1,2-disubstituted piperidinyl)-4 (fused imidazole)-piperidine derivatives” (Janssen Pharmaceuticals N.V., priority 1995, dated 2001).
Like-named read-outs stand apart in the source and are kept apart here.

How the values were obtained:
[1] = system: Substance P Induced Relaxation of the Pig Coronary Arteries; assay: Antagonism of substance P induced relaxation of the pig coronary arteries; conditions: 30 min incubation
Procedure: Antagonism of Substance P Induced Relaxation of the Pig Coronary Arteries
Segments of coronary arteries taken from pigs (killed by injection of an overdose of sodium pentobarbital) were inverted and mounted for recording of isometric tension in organ baths (volume 20 ml) with the endothelium at the outside. The preparations were bathed in Krebs-Henseleit solution. The solution was kept at 37° C. and gassed with a mixture of O2 /CO2 (95/5). After stabilisation of the preparations, prostaglandin F2α (10^-5 M) was administered to induce a contraction. This was repeated until contractile responses became stable. Then prostaglandin F2α was again administered and substance P (3×10^-10 M and 10^-9 M cumulatively) was added. Substance P induced endothelium dependent relaxations. After washing away the agonists, a known concentration of a compound of formula (I) was added. After an incubation period of 30 minutes, prostaglandin F2α (10^-5 M) and the same concentrations of substance P as described above were again administered in the presence of the compound to be tested.

[2] = system: Substance P Induced Plasma Extravasation; assay: Antagonism of substance P induced plasma extravasation in guinea-pigs; type: in vivo, guinea-pig; conditions: Cavia porcellus, sc, s.c., 1 hour prior to substance P
Procedure: Antagonism of Substance P Induced Plasma Extravasation in Guinea-pigs
Plasma travasation was induced by injection of substance P (2 mg/kg) in the femoral artery of female guinea-pigs. Evans Blue dye (30 mg/kg) was injected simultaneously. The test compound or solvent was administered subcutaneous (s.c.) or orally (p.o.) 1 hour prior to substance P injection. 10 minutes after challenge, the animals were checked for blue colouring (a direct measure for plasma extravasation) of the nose, the forepaws, and the conjunctiva. 30 minutes after challenge, the animals were sacrificed by CO2 gas inhalation and checked for blue colouring of the trachea and the urinary bladder. […]

[3] = test compound concentration 3 × 10^-9 (unit not given)
[4] = 10 min, conjunctiva, read-out: lowest active dose (LAD), conjunctiva
[5] = 10 min, forepaws, read-out: lowest active dose (LAD), forepaws
[6] = 10 min, nose, read-out: lowest active dose (LAD), nose
[7] = 0.5 h, trachea, read-out: lowest active dose (LAD), trachea
[8] = 0.5 h, urinary bladder, read-out: lowest active dose (LAD), urinary bladder

Row | SMILES | % inhibition of the response to 10^-9 M substance P [1, 3] | other results
1 | O=C(c1cc(C(F)(F)F)cc(C(F)(F)F)c1)N1CC[C@@H](N2CCC(C3c4ccccc4CCn4c3nc3ccccc34)CC2)C[C@@H]1Cc1ccc(Cl)c(Cl)c1 (mixture of isomers) [Compound 63, (±)-trans-1-[3,5-bis(trifluoromethyl)benzoyl]-2-[(3,4-dichlorophenyl)methyl]-4-[4-(11,12-dihydro-6H-benzimidazo[2,1-b][3]benzazepin-6-yl)-1-piperidinyl]piperidine] | 61.4% | 
2 | O=C(c1cc(C(F)(F)F)cc(C(F)(F)F)c1)N1CC[C@@H](N2CCC(=C3c4sccc4CCn4ccnc43)CC2)C[C@H]1Cc1ccccc1 (relative stereo) [Compound 6] |  | % inhibition of the response to 10^-9 M substance P ([1]; test compound concentration 3 × 10^-8 (unit not given)): 93.9%
3 | O=C(c1cc(C(F)(F)F)cc(C(F)(F)F)c1)N1CC[C@@H](N2CCC(=C3c4ccccc4CCn4ccnc43)CC2)C[C@H]1Cc1ccccc1 (relative stereo) [Compound 23] | 13.4% | 
4 | Cc1cc(C)cc(C(=O)N2CC[C@@H](N3CCC(=C4c5ccccc5CCn5c(C=O)cnc54)CC3)C[C@H]2Cc2ccccc2)c1 (relative stereo) [Compound 24] | 38.3% | 
5 | COC(=O)c1cnc2n1CCc1ccsc1C2=C1CCN([C@@H]2CCN(C(=O)c3cc(C)cc(C)c3)[C@@H](Cc3ccccc3)C2)CC1 (relative stereo) [Compound 36] | 23.7% | 
6 | Cc1cc(C)cc(C(=O)N2CC[C@H](N3CCC(=C4c5ccsc5CCn5ccnc54)CC3)C[C@@H]2Cc2ccccc2)c1 (relative stereo) [Compound 38] | 27.1% | 
7 | COC(=O)c1cnc2n1CCc1ccccc1C2=C1CCN([C@H]2CCN(C(=O)c3cc(C)cc(C)c3)[C@@H](Cc3ccccc3)C2)CC1 (relative stereo) [Compound 40] | 8.4% | 
8 | Cc1cc(C)cc(C(=O)N2CC[C@H](N3CCC(=C4c5ccccc5CCn5c(Cl)cnc54)CC3)C[C@@H]2Cc2ccccc2)c1 (relative stereo) [Compound 43] | 16% | 
9 | Cc1cc(C)cc(C(=O)N2CC[C@H](N3CCC(=C4c5ccccc5CCn5c(Cl)cnc54)CC3)C[C@H]2Cc2ccccc2)c1 (relative stereo) [Compound 44] | 63.9% | 
10 | Cc1cc(C)cc(C(=O)N2CC[C@H](N3CCC(=C4c5ccccc5CCn5c4nc4ccccc45)CC3)C[C@@H]2Cc2ccccc2)c1 (relative stereo) [Compound 45] | 7.9% | 
11 | Cc1cc(C)cc(C(=O)N2CC[C@H](N3CCC(=C4c5ccccc5CCn5c4nc4ccccc45)CC3)C[C@H]2Cc2ccccc2)c1 (relative stereo) [Compound 46] | 54.3% | 
12 | O=C(c1cc(Cl)cc(Cl)c1)N1CC[C@H](N2CCC(=C3c4ccccc4CCn4ccnc43)CC2)C[C@H]1Cc1ccccc1 (relative stereo) [Compound 48] | 59.7% | 
13 | O=C(c1cc(C(F)(F)F)cc(C(F)(F)F)c1)N1CC[C@H](N2CCC(=C3c4ccccc4CCn4c3nc(CO)c4CO)CC2)C[C@H]1Cc1ccccc1 (relative stereo) [Compound 49] | 52.5% | 
14 | Cc1ccc2c(c1)CCn1ccnc1C2=C1CCN([C@H]2CCN(C(=O)c3cc(C(F)(F)F)cc(C(F)(F)F)c3)[C@@H](Cc3ccccc3)C2)CC1 (relative stereo) [Compound 50] | 25% | 
15 | Cc1ccc2c(c1)CCn1ccnc1C2=C1CCN([C@H]2CCN(C(=O)c3cc(C(F)(F)F)cc(C(F)(F)F)c3)[C@H](Cc3ccccc3)C2)CC1 (relative stereo) [Compound 51] | 86.3% | 
16 | Cc1cc(C)cc(C(=O)N2CC[C@H](N3CCC(=C4c5ccc(C)cc5CCn5ccnc54)CC3)C[C@@H]2Cc2ccccc2)c1 (relative stereo) [Compound 56] | 9.5% | 
17 | Cc1cc(C)cc(C(=O)N2CC[C@H](N3CCC(=C4c5ccc(C)cc5CCn5ccnc54)CC3)C[C@H]2Cc2ccccc2)c1 (relative stereo) [Compound 57] | 66.7% | 
18 | O=C(c1cc(C(F)(F)F)cc(C(F)(F)F)c1)N1CC[C@H](N2CCC(=C3c4ccccc4CCn4c(Cl)cnc43)CC2)C[C@H]1Cc1ccccc1 (relative stereo) [Compound 58] | 91.5% | 
19 | Cc1cn2c(n1)C(=C1CCN([C@H]3CCN(C(=O)c4cc(C(F)(F)F)cc(C(F)(F)F)c4)[C@@H](Cc4ccccc4)C3)CC1)c1ccn(C)c1CC2 (relative stereo) [Compound 59] | 76.5% | 
20 | Cc1cn2c(n1)C(=C1CCN([C@H]3CCN(C(=O)c4cc(C(F)(F)F)cc(C(F)(F)F)c4)[C@H](Cc4ccccc4)C3)CC1)c1ccn(C)c1CC2 (relative stereo) [Compound 60] | 89.9% | 
21 | Cc1cc(C)cc(C(=O)N2CC[C@H](N3CCC(=C4c5ccccc5CCn5c4nc(CO)c5CO)CC3)C[C@@H]2Cc2ccccc2)c1 (relative stereo) [Compound 61] | 7.5% | 
22 | O=C(c1cc(C(F)(F)F)cc(C(F)(F)F)c1)N1CC[C@H](N2CCC(=C3c4ccccc4CCn4c(Cl)cnc43)CC2)C[C@@H]1Cc1ccccc1 (relative stereo) [Compound 62] | 49.0% | 
23 | O=C(c1cc(C(F)(F)F)cc(C(F)(F)F)c1)N1CC[C@H](N2CCC(=C3c4ccccc4CCn4c3nc3ccccc34)CC2)C[C@@H]1Cc1ccccc1 (relative stereo) [Compound 71] | 53.1% | 
24 | O=C(c1ccco1)N1CC[C@@H](N2CCC(=C3c4ccccc4CCn4ccnc43)CC2)C[C@@H]1Cc1ccccc1 (relative stereo) [Compound 77] | 3.2% | 
25 | O=C(c1ccc2ccccc2c1)N1CC[C@@H](N2CCC(=C3c4ccccc4CCn4ccnc43)CC2)C[C@@H]1Cc1ccccc1 (relative stereo) [Compound 78] | 7.5% | 
26 | O=C(Nc1cc(C(F)(F)F)cc(C(F)(F)F)c1)N1CC[C@@H](N2CCC(=C3c4ccccc4CCn4ccnc43)CC2)C[C@@H]1Cc1ccccc1 (relative stereo) [Compound 80] | 10.9% | 
27 | O=C(c1ccc2[nH]ccc2c1)N1CC[C@@H](N2CCC(=C3c4ccccc4CCn4ccnc43)CC2)C[C@@H]1Cc1ccccc1 (relative stereo) [Compound 81] | 2.2% | 
28 | O=C(c1ccc2ccccc2c1)N1CC[C@H](N2CCC(=C3c4ccccc4CCn4ccnc43)CC2)C[C@@H]1Cc1ccccc1 (relative stereo) [Compound 84] | 2.4% | 
29 | O=C(c1cc(C(F)(F)F)cc(C(F)(F)F)c1)N1CC[C@H](N2CCC3(CC2)c2ccccc2CCn2ccnc23)C[C@@H]1Cc1ccccc1 (relative stereo) [Compound 117] |  | minimal effective dose [2, 4]: 2.5 mg/kg; minimal effective dose [2, 5]: 2.5 mg/kg; minimal effective dose [2, 6]: 2.5 mg/kg; minimal effective dose [2, 7]: 40 mg/kg; minimal effective dose [2, 8]: 10 mg/kg
30 | O=C(c1cc(C(F)(F)F)cc(C(F)(F)F)c1)N1CC[C@@H](N2CCC3(CC2)c2ccccc2CCn2ccnc23)C[C@@H]1Cc1ccccc1 (relative stereo) [Compound 118] |  | minimal effective dose [2, 4]: 10 mg/kg; minimal effective dose [2, 5]: 10 mg/kg; minimal effective dose [2, 6]: 10 mg/kg; minimal effective dose [2, 7]: 10 mg/kg; minimal effective dose [2, 8]: 10 mg/kg
